Test results taken from patent EP0626016B1, “[…] […]” (BRITISH TECHNOLOGY GROUP LIMITED, priority 1992, dated 1993).
Where two headings read alike, the source gives them in different places.

Experiments:
HRP Type VIA [1] = biological target: T1, HRP Type VIA (Armoracia rusticana, UniProt P00433); test: Effect of organoboron compounds on the luminol-hydrogen peroxide-HRP chemiluminescent reaction (Example 2); type: biochemical, horseradish; parameters: purchased Sigma Chemical Co; details: test
T1 sequence (P00433 31-338): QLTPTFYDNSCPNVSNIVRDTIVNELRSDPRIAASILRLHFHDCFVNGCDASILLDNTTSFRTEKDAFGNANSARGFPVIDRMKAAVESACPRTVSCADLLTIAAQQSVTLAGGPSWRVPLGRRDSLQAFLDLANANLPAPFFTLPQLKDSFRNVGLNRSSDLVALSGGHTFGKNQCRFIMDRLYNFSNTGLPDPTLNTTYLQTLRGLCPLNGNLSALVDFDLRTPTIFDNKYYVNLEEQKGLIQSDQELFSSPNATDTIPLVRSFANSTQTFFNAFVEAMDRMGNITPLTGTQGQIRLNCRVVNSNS
Description: The stock solution of HRP Type VIA (1mg/ml) and luminol-hydrogen peroxide reagent were prepared as described previously. Luminol-hydrogen peroxide (100µl, 1:10 dilution) was mixed with either 10µl of HRP (1:50,000 dilution) or, 10µl of Tris buffer (0.1mol/l, pH 8.6). […] A control without any test compound was run in parallel.
The control consisted of buffer in place of the compound under test as an enhancer. […]

HRP [2] = biological target: T2, HRP (Armoracia rusticana, UniProt P00433); test: PIBA enhancement of the HRP-luminol-peroxide reaction (Example 7); type: biochemical, horseradish; details: for Signal: Background ratio: at 1 minute
T2 construct: purchased Sigma Chemical Co
T2 sequence (P00433 31-338): T1 sequence (P00433 31-338)
Description: PBBA was added in various concentrations (range 0.05µg to 0.5µg) to a luminol-H2O2 reaction in the presence and absence of HRP. The luminol-hydrogen peroxide reagent was prepared as follows: sodium luminol (12.5mg) was dissolved in 50ml of Tris buffer (0.1mol/l, pH 8.6), and 15.5µl of hydrogen peroxide (30% w/v) was mixed with 0.5ml of Tris buffer (0.lmol/l, pH 8.6). These two solutions were combined and protected from light. The luminol-hydrogen peroxide reagent (100µl of a 1:10 dilution) was added to a cuvette together with either 10µl of HRP Type VI A (HRP, Sigma Chemical Co., 1:50,000 dilution) or as a control 10µl of Tris Buffer (0.1mol/l, pH 8.6), and various amounts of PBBA (Aldrich Chemical Co.), range 0.05µg-0.5µg in 0.1mol/l Tris, pH 8.6). […]
The experiment of Example 1 was repeated using PIBA in place of PBBA. Various dilutions of PIBA (Cookson Chemicals Ltd., Southampton, UK, 1mg/ml stock in DMSO) in Tris buffer were used. […]

HRP [3] = biological target: T2, HRP; test: CPA as enhancer of the luminol-H2O2-HRP reaction, Amerlite microplate reader (Example 9); type: biochemical, horseradish
Description: PBBA was added in various concentrations (range 0.05µg to 0.5µg) to a luminol-H2O2 reaction in the presence and absence of HRP. The luminol-hydrogen peroxide reagent was prepared as follows: sodium luminol (12.5mg) was dissolved in 50ml of Tris buffer (0.1mol/l, pH 8.6), and 15.5µl of hydrogen peroxide (30% w/v) was mixed with 0.5ml of Tris buffer (0.lmol/l, pH 8.6). These two solutions were combined and protected from light. The luminol-hydrogen peroxide reagent (100µl of a 1:10 dilution) was added to a cuvette together with either 10µl of HRP Type VI A (HRP, Sigma Chemical Co., 1:50,000 dilution) or as a control 10µl of Tris Buffer (0.1mol/l, pH 8.6), and various amounts of PBBA (Aldrich Chemical Co.), range 0.05µg-0.5µg in 0.1mol/l Tris, pH 8.6). The reagents were mixed and the light emission recorded after 5 minutes on a Berthold Biolumat LB9500C.
The experiment of Example 1 was repeated using CPA in place of PBBA. Various dilutions of CPA (Cookson Chemicals Ltd., Southampton, UK, […] in 1 mg/ml Tris buffer, pH 8.6) were used. […] "Amerlite" is a Registered Trade Mark.

HRP Type VIA [4] = biological target: T1, HRP Type VIA; details: 10µl test compound; for (d) Signal: Background: ratio (control = with no enhancer): control value in brackets not reported

OB(O)c1ccccc1 [Compound 5004, phenylboronic acid]
Signal (no HRP) (HRP Type VIA [1]; 5µl of 1mg/ml compound): 5,601
Signal (with HRP) (HRP Type VIA [1]; 5µl of 1mg/ml compound): 54,554
Signal: Background ratio (HRP Type VIA [1]; 5µl of 1mg/ml compound): 9.7

butaneborinic acid [Compound 5005]
Signal (no HRP) (HRP Type VIA [1]; 40µl of 1mg/ml compound): 54,389
Signal (with HRP) (HRP Type VIA [1]; 40µl of 1mg/ml compound): 65,197
Signal: Background ratio (HRP Type VIA [1]; 40µl of 1mg/ml compound): 1.2

OB(O)c1ccc(I)cc1 [PIBA, para-iodophenylboronic acid]
Light emission at 1 minute, Background (HRP [2]; PIBA 0.01 µg): 12,862
Light emission at 1 minute, Signal (HRP [2]; PIBA 0.01 µg): 78,419
Signal: Background ratio (HRP [2]; PIBA 0.01 µg): 6.1
Light emission at 1 minute, Background (HRP [2]; PIBA 0.1 µg): 13,221
Light emission at 1 minute, Signal (HRP [2]; PIBA 0.1 µg): 74,487
Signal: Background ratio (HRP [2]; PIBA 0.1 µg): 7.1
Light emission at 1 minute, Background (HRP [2]; PIBA 1 µg): 10,282
Light emission at 1 minute, Signal (HRP [2]; PIBA 1 µg): 324,312
Signal: Background ratio (HRP [2]; PIBA 1 µg): 31.5
Light emission at 1 minute, Background (HRP [2]; PIBA 10 µg): 5,517
Light emission at 1 minute, Signal (HRP [2]; PIBA 10 µg): 540,760
Signal: Background ratio (HRP [2]; PIBA 10 µg): 98
Light emission at 1 minute, Background (HRP [2]; PIBA 20 µg): 3,837
Light emission at 1 minute, Signal (HRP [2]; PIBA 20 µg): 135,065
Signal: Background ratio (HRP [2]; PIBA 20 µg): 35.2

OB(O)c1ccc(Cl)cc1Cl [Compound 5002, 2,4-dichlorophenylboronic acid]
Signal (no HRP) (HRP Type VIA [1]; 5µl of 1mg/ml compound): 16,246
Signal (with HRP) (HRP Type VIA [1]; 5µl of 1mg/ml compound): 128,274
Signal: Background ratio (HRP Type VIA [1]; 5µl of 1mg/ml compound): 7.9

O=C(O)C=Cc1ccc(B(O)O)cc1 [CPA, 4-(2-carboxyethenyl)phenylboronic acid]
Signal (no HRP) (HRP [3]; CPA 0.01 µg): 0.094
Signal (with HRP) (HRP [3]; CPA 0.01 µg): 0.41
Signal: Background ratio (HRP [3]; CPA 0.01 µg): 4.4
Signal (no HRP) (HRP [3]; CPA 0.02 µg): 0.09
Signal (with HRP) (HRP [3]; CPA 0.02 µg): 0.46
Signal: Background ratio (HRP [3]; CPA 0.02 µg): 5.1
Signal (no HRP) (HRP [3]; CPA 0.05 µg): 0.09
Signal (with HRP) (HRP [3]; CPA 0.05 µg): 0.68
Signal: Background ratio (HRP [3]; CPA 0.05 µg): 7.6
Signal (no HRP) (HRP [3]; CPA 0.1 µg): 0.09
Signal (with HRP) (HRP [3]; CPA 0.1 µg): 1.23
Signal: Background ratio (HRP [3]; CPA 0.1 µg): 14.2
Signal (no HRP) (HRP [3]; CPA 0.2 µg): 0.08
Signal (with HRP) (HRP [3]; CPA 0.2 µg): 2.37
Signal: Background ratio (HRP [3]; CPA 0.2 µg): 28.2
Signal (no HRP) (HRP [3]; CPA 0.5 µg): 0.07
Signal (with HRP) (HRP [3]; CPA 0.5 µg): 4.57
Signal: Background ratio (HRP [3]; CPA 0.5 µg): 63.4
Signal (no HRP) (HRP [3]; CPA 1.0 µg): 0.06
Signal (with HRP) (HRP [3]; CPA 1.0 µg): 5.58
Signal: Background ratio (HRP [3]; CPA 1.0 µg): 93.0
Signal (no HRP) (HRP [3]; CPA 10 µg): 0.02
Signal (with HRP) (HRP [3]; CPA 10 µg): 2.49
Signal: Background ratio (HRP [3]; CPA 10 µg): 124.9
Signal (no HRP) (HRP [3]; CPA 20 µg): 0.003
Signal (with HRP) (HRP [3]; CPA 20 µg): 0.88
Signal: Background ratio (HRP [3]; CPA 20 µg): 43.9

boroglycine [Compound 1015]
(a) Decrease in background (without HRP with test cpd.) (HRP Type VIA [4]; 0.01 mg/ml): Y
(b) Increase in signal (with HRP, with test cpd.) (HRP Type VIA [4]; 0.01 mg/ml): Y
(c) Increase in signal: background ratio (HRP Type VIA [4]; 0.01 mg/ml): N (N = no)
(d) Signal: Background: ratio (control = with no enhancer) (HRP Type VIA [4]; 0.01 mg/ml): 2.3
(a) Decrease in background (without HRP with test cpd.) (HRP Type VIA [4]; 0.1 mg/ml): Y
(b) Increase in signal (with HRP, with test cpd.) (HRP Type VIA [4]; 0.1 mg/ml): Y
(c) Increase in signal: background ratio (HRP Type VIA [4]; 0.1 mg/ml): Y (Column (c) shows whether there was an increase in the signal:background ratio by over 25% of the control value (Y = yes)
(d) Signal: Background: ratio (control = with no enhancer) (HRP Type VIA [4]; 0.1 mg/ml): 2.9
(a) Decrease in background (without HRP with test cpd.) (HRP Type VIA [4]; 1 mg/ml): Y
(b) Increase in signal (with HRP, with test cpd.) (HRP Type VIA [4]; 1 mg/ml): N
(c) Increase in signal: background ratio (HRP Type VIA [4]; 1 mg/ml): Y (Column (c) shows whether there was an increase in the signal:background ratio by over 25% of the control value (Y = yes)
(d) Signal: Background: ratio (control = with no enhancer) (HRP Type VIA [4]; 1 mg/ml): 3.1 (2.1)
